# pIC50: −log10 of the molar value.
# Columns and labels:
# [1] = target: T1, Aurora kinase A (Homo sapiens) (UniProt O14965); assay: Inhibition of human Aurora A using [H-LRRASLG] as substrate at 20 uM in presence of [gamma-33P]-ATP incubated for 2 hrs by hotspot kinase assay relative to control
# T1 sequence (whole entry): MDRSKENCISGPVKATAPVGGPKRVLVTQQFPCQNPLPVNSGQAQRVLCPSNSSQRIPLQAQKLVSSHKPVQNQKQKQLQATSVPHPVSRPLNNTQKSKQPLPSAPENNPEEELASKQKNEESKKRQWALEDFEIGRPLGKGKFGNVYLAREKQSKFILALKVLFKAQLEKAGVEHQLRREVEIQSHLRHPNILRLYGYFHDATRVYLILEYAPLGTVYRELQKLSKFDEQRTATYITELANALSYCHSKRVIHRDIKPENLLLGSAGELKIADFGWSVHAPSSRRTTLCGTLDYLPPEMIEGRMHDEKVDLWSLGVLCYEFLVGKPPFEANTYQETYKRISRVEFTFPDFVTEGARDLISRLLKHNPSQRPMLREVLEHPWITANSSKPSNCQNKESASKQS
# Aurora kinase B [2] = target: T2, Aurora kinase B (Homo sapiens, UniProt Q96GD4); assay: Inhibition of human Aurora B using [H-LRRASLG] as substrate at 20 uM in presence of [gamma-33P]-ATP incubated for 2 hrs by hotspot kinase assay relative to control
# Aurora kinase A = target: T3, Aurora kinase A (Homo sapiens, UniProt O14965); assay: Inhibition of human Aurora A using [H-LRRASLG] as substrate in presence of [gamma-33P]-ATP incubated for 2 hrs by hotspot kinase assay
# T3 sequence (O14965 whole entry): T1 sequence (whole entry)
# Aurora kinase B [3] = target: T2, Aurora kinase B; assay: Inhibition of human Aurora B using [H-LRRASLG] as substrate in presence of [gamma-33P]-ATP incubated for 2 hrs by hotspot kinase assay
# 786-0 = assay: Antitumor activity against human 786-O cells assessed as growth inhibition at 10-'5 M incubated for 48 hrs by SRB assay relative to control; format: functional
# HCT-116 = assay: Antitumor activity against human HCT116 cells assessed as growth inhibition at 10-'5 M incubated for 48 hrs by SRB assay relative to control; format: functional
# M14 = assay: Antitumor activity against human M14 cells assessed as growth inhibition at 10-'5 M incubated for 48 hrs by SRB assay relative to control; format: functional
# A498 = assay: Antitumor activity against human A498 cells assessed as growth inhibition at 10-'5 M incubated for 48 hrs by SRB assay relative to control; format: functional
# UO-31 = assay: Antitumor activity against human UO31 cells assessed as growth inhibition at 10-'5 M incubated for 48 hrs by SRB assay relative to control; format: functional
# CAKI-1 = assay: Antitumor activity against human CAKI-1 cells assessed as growth inhibition at 10-'5 M incubated for 48 hrs by SRB assay relative to control; format: functional
# SNB-75 = assay: Antitumor activity against human SNB75 cells assessed as growth inhibition at 10-'5 M incubated for 48 hrs by SRB assay relative to control; format: functional
# MDA-MB-231 = assay: Antitumor activity against human MDA-MB-231 cells assessed as growth inhibition at 10-'5 M incubated for 48 hrs by SRB assay relative to control; format: functional
# Hs-578T = assay: Antitumor activity against human Hs 578T cells assessed as growth inhibition at 10-'5 M incubated for 48 hrs by SRB assay relative to control; format: functional
# KM12 = assay: Antitumor activity against human KM12 cells assessed as growth inhibition at 10-'5 M incubated for 48 hrs by SRB assay relative to control; format: functional
# SK-MEL-5 = assay: Antitumor activity against human SK-MEL-5 cells assessed as growth inhibition at 10-'5 M incubated for 48 hrs by SRB assay relative to control; format: functional
# UACC-62 = assay: Antitumor activity against human UACC62 cells assessed as growth inhibition at 10-'5 M incubated for 48 hrs by SRB assay relative to control; format: functional
# MCF7 = assay: Antitumor activity against human MCF7 cells assessed as growth inhibition at 10-'5 M incubated for 48 hrs by SRB assay relative to control; format: functional
# T47D = assay: Antitumor activity against human T47D cells assessed as growth inhibition at 10-'5 M incubated for 48 hrs by SRB assay relative to control; format: functional
# MOLT-4 = assay: Antitumor activity against human MOLT4 cells assessed as growth inhibition at 10-'5 M incubated for 48 hrs by SRB assay relative to control; format: functional
# HOP-62 = assay: Antitumor activity against human HOP62 cells assessed as growth inhibition at 10-'5 M incubated for 48 hrs by SRB assay relative to control; format: functional
# IGROV-1 = assay: Antitumor activity against human IGROV1 cells assessed as growth inhibition at 10-'5 M incubated for 48 hrs by SRB assay relative to control; format: functional
# T2 sequence (Q96GD4 whole entry): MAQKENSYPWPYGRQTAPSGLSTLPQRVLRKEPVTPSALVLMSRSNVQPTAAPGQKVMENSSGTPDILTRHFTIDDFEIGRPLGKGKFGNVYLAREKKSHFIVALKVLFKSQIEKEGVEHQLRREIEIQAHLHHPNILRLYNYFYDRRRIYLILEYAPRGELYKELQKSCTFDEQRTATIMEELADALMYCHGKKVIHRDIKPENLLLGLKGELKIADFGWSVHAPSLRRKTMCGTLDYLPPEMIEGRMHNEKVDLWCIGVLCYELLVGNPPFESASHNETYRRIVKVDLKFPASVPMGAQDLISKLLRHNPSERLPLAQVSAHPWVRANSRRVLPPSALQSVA
inhibition [1] [%],inhibition (Aurora kinase B [2]) [%],pIC50 (Aurora kinase A),pIC50 (Aurora kinase B [3]),Compound,growth inhibition (GI) (A498),growth inhibition (GI) (UO-31),growth inhibition (GI) (CAKI-1),growth inhibition (GI) (SNB-75),also measured
71.9,56.6,4.87,4.88,CCOC(=O)c1cnc2ccccc2c1Nc1cccc(NS(C)(=O)=O)c1,–,–,–,–,growth inhibition (GI) (786-0): >=20%; growth inhibition (GI) (HCT-116): >50%; growth inhibition (GI) (M14): >50%
66,91.6,5.75,5.87,CCOC(=O)c1cnc2ccc(Br)cc2c1Nc1cccc(NS(C)(=O)=O)c1,>=20%,>=20%,–,–,–
26.9,87.4,–,5.79,CCOC(=O)c1cnc2ccc(Br)cc2c1Nc1cccc(S(N)(=O)=O)c1,>=20%,–,>=20%,>=20%,–
64.3,60.9,4.78,4.90,CCOC(=O)c1cnc2ccccc2c1Nc1cccc(S(N)(=O)=O)c1,–,>=20%,>=20%,>=20%,–
6.15,33.7,–,–,CCOC(=O)c1cnc2ccccc2c1Nc1cccc(S(=O)(=O)NC)c1,>=20%,>=20%,>=20%,>=20%,growth inhibition (GI) (MDA-MB-231): >=20%; growth inhibition (GI) (Hs-578T): >=20%; growth inhibition (GI) (KM12): >=20%; growth inhibition (GI) (SK-MEL-5): >=20%; growth inhibition (GI) (UACC-62): >=20%; growth inhibition (GI) (MCF7): >=20%; growth inhibition (GI) (T47D): >=20%; growth inhibition (GI) (MOLT-4): >=20%; growth inhibition (GI) (HOP-62): >=20%; growth inhibition (GI) (IGROV-1): >=20%
